Active and inactive are the calls of the source. The rule behind the calls is not given here. Non-standard residues stand in square brackets, D forms with d. Residues, ends and D or L forms follow the SMILES beside them. *: point of attachment. AllylGly = C=CC[C@H](N)C(=O)O; Acryloyl = C=CC(=O)*; NHBn = c1ccc(CN*)cc1; ClAc = O=C(CCl)*
Legend:
[1] = biological target: Replicase polyprotein 1ab (Severe acute respiratory syndrome coronavirus 2, UniProt P0DTD1); experiment: Inhibition of recombinant SARS-CoV-2 main protease using DABCYL-KTSAVLQSGFRKME-EDANS as fluorescent substrate preincubated for 30 mins followed by substrate addition by FRET assay
[2] = Cytotoxicity against African green monkey Vero cells assessed as change in cell morphology by measuring minimum cytotoxic concentration by microscopic analysis; format: toxicity, cell-based; settings: chlorocebus sabaeus
Human coronavirus 229E = format: functional, organism-based
Human coronavirus OC43 = format: functional, organism-based
[3] = Stability in simulated gastric fluid assessed as parent compound remaining incubated upto 120 mins by LC-MS analysis; format: ADME; settings: read-out: Stability
[4] = Stability in simulated intestinal fluid assessed as parent compound remaining incubated upto 120 mins by LC-MS analysis; format: ADME; settings: read-out: Stability
[5] = Half life in human plasma at 10 uM measured upto 180 mins by LC-MS analysis; format: ADME, cell-free
SARS-CoV-2 [6] = experiment: microbe, parasite or virus in culture; settings: Severe acute respiratory syndrome coronavirus 2, Wuhan/WIV04/2020, Vero
Description: Antiviral activity against SARS-CoV-2 Wuhan/WIV04/2020 infected in African green monkey Vero cells assessed as reduction in virus-induced cytopathic effect incubated for 6 to 7 days by microscopic analysis

SARS-CoV-2 [7] = experiment: microbe, parasite or virus in culture; settings: Severe acute respiratory syndrome coronavirus 2, NVDBB-2220 (Alpha), Vero
Description: Antiviral activity against SARS-CoV-2 NVDBB-2220 (Alpha) infected in African green monkey Vero cells assessed as reduction in virus-induced cytopathic effect incubated for 6 to 7 days by microscopic analysis

SARS-CoV-2 [8] = experiment: microbe, parasite or virus in culture; settings: Severe acute respiratory syndrome coronavirus 2, 860-J1 (Delta), Vero
Description: Antiviral activity against SARS-CoV-2 860-J1 (Delta) infected in African green monkey Vero cells assessed as reduction in virus-induced cytopathic effect incubated for 6 to 7 days by microscopic analysis

SARS-CoV-2 [9] = experiment: microbe, parasite or virus in culture; settings: Severe acute respiratory syndrome coronavirus 2, Omicron B1.1.529, Vero
Description: Antiviral activity against SARS-CoV-2 Omicron B1.1.529 infected in African green monkey Vero cells assessed as reduction in virus-induced cytopathic effect incubated for 6 to 7 days by microscopic analysis

[10] = Metabolic stability in human liver microsomes assessed as half life incubated upto 60 mins in presence of NADPH by LC-MS analysis; format: ADME, Microsome
[11] = Metabolic stability in human liver microsomes assessed as half life incubated upto 60 mins in presence of NADPH and UDPGA by LC-MS analysis; format: ADME, Microsome
[12] = Metabolic stability in human liver microsomes assessed as intrinsic clearance incubated upto 60 mins in presence of NADPH by LC-MS analysis; format: ADME, Microsome; settings: read-out: CLH
Procathepsin L = Procathepsin L (Homo sapiens, UniProt P07711); experiment: Inhibition of Cathepsin L (unknown origin) using Z-Leu-Arg-AMC fluorometric dipeptide as substrate peincubated for 10 mins followed by substrate addition by fluorescence based assay
Procathepsin L, sequence (P07711 whole entry): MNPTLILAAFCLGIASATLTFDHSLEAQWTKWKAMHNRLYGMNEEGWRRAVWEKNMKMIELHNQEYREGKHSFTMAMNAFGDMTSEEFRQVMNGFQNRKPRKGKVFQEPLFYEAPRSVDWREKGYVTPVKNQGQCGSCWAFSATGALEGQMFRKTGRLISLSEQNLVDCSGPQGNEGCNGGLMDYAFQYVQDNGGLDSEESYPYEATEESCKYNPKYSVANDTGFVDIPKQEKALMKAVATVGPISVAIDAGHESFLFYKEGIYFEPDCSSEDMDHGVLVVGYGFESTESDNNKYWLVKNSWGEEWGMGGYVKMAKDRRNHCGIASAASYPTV

Compound	IC50 [1] [µM]	MCC [2] [µM]	Activity (Human coronavirus 229E)	Activity (Human coronavirus OC43)	remaining at 2 h [3] [%]	remaining at 2 h [4] [%]	half-life at 10 µM [5] [min]	EC50 (SARS-CoV-2 [6]) [µM]	EC50 (SARS-CoV-2 [7]) [µM]	EC50 (SARS-CoV-2 [8]) [µM]	EC50 (SARS-CoV-2 [9]) [µM]	half-life [10] [min]	half-life [11] [min]	CLint scaled [12] [mL/min/kg]	IC50 (Procathepsin L) [µM]
CC(C)C[C@H](NC(=O)[C@H](Cc1c[nH]c2ccccc12)NC(=O)CCl)C(=O)NCc1ccccc1 (ClAc-Trp-Leu-NHBn)	8.32	20	Active	Active	> 80	> 80	24.4	0.25	0.41	1.25	0.4				
CC(C)C[C@@H](C(=O)NCC12CC3CC(CC(C3)C1)C2)N(Cc1ccccc1)C(=O)CCl	> 30	19	Active	Active				> 4	> 4	> 4	> 4				
C=CC[C@H](NC(=O)CCl)C(=O)N[C@@H](CC=C)C(=O)N[C@H](CNCc1ccccc1)Cc1c[nH]c2ccccc12	> 30	> 100	Active	Active				4.29	2.53	18.1	15.2				
CCC(CC)COC(=O)[C@H](C)N[P@](=O)(OC[C@H]1O[C@@](C#N)(c2ccc3c(N)ncnn23)[C@H](O)[C@@H]1O)Oc1ccccc1 [REMDESIVIR]		> 40	Active	Active				3.74	2.93	3.74	0.83				
CC(C)C[C@H](NC(=O)CCl)C(=O)N[C@@H](Cc1ccccc1)C(=O)N[C@@H](Cc1c[nH]c2ccccc12)C(=O)NCc1ccccc1 (ClAc-Leu-Phe-Trp-NHBn)	> 30	> 100	Active	Active				4.81	> 20	> 20	> 100				
CCN(CC)CCCC(C)Nc1ccnc2cc(Cl)ccc12 (stereo not given)			Active	Active											
CC(C)C[C@@H](NC(=O)CCl)C(=O)N[C@@H](Cc1c[nH]c2ccccc12)C(=O)NCc1ccccc1	> 30	> 100	Active	Active	> 80	> 80	232	0.08	0.57	1.08	1.37	74.5	75.3	< 45	
O=C(CS)N[C@@H](Cc1ccccc1)C(=O)N[C@@H](Cc1c[nH]c2ccccc12)C(=O)NCc1ccccc1	> 30	> 100	Active	Active				> 100	> 100	> 100	> 100				
COC(=O)[C@H](CCC(N)=O)NC(=O)[C@H](Cc1c[nH]c2ccccc12)NC(=O)[C@H](CC(C)C)NC(=O)CCl (ClAc-Leu-Trp-Gln-OMe)	> 30	> 100	Active	Active				> 100	> 100	> 100	> 100				
CC(C)C[C@H](NC(=O)CCl)C(=O)N[C@@H](Cc1c[nH]c2ccccc12)C(=O)NCc1ccccc1	2.81	> 100	Active	Active	> 80	> 80		0.27	0.32	1.2	1.28	29.7	21.1	> 45	
C=CC[C@H](NC(=O)CCl)C(=O)N[C@@H](Cc1c[nH]c2ccccc12)C(=O)NCCN1CCOCC1	> 30	> 100	Active	Active				10.3	10.7	29.2	13.5				
C=CC[C@H](NC(=O)CCl)C(=O)N[C@@H](Cc1c[nH]c2ccccc12)C(=O)NCc1ccccc1 (ClAc-[AllylGly]-Trp-NHBn)	1.72	> 100	Active	Active				0.49	1.16	2.12	5.87				
CCOC(=O)[C@H]1O[C@@H]1C(=O)N[C@@H](CC(C)C)C(=O)NCCC(C)C [ALOXISTATIN]			Active	Active											0.034
O=C(CCl)N[C@@H](Cc1ccc(O)cc1)C(=O)N[C@@H](Cc1c[nH]c2ccccc12)C(=O)NCc1ccccc1 (ClAc-Tyr-Trp-NHBn)	8.35	> 100	inactive	inactive				2.37	3.46	12.3	5.04				
COC(=O)[C@H](CC(C)C)NC(=O)[C@H](Cc1c[nH]c2ccccc12)NC(=O)CCl (ClAc-Trp-Leu-OMe)	> 30	21	Active	Active				> 4	> 20	> 20	> 4				
O=C(CCl)N[C@@H](Cc1ccccc1)C(=O)N[C@@H](Cc1c[nH]c2ccccc12)C(=O)NCc1ccccc1 (ClAc-Phe-Trp-NHBn)	0.73	> 100	Active	Active	> 80	> 80		0.09	0.68	1.3	1.34	38.3	19.6	> 45	
C=CC(=O)N[C@@H](Cc1ccccc1)C(=O)N[C@@H](Cc1c[nH]c2ccccc12)C(=O)NCc1ccccc1 (Acryloyl-Phe-Trp-NHBn)	> 30	> 100	Active	Active				> 20	> 20	> 20	> 20				> 30
O=C(CCl)NCC(=O)N[C@@H](Cc1c[nH]c2ccccc12)C(=O)NCc1ccccc1 (ClAc-Gly-Trp-NHBn)	> 30	> 100	Active	Active	> 80	> 80		0.16	0.3	0.54	0.81	346	122	< 15	
CC(C)C(=O)OC[C@H]1O[C@@H](n2ccc(NO)nc2=O)[C@H](O)[C@@H]1O [MOLNUPIRAVIR]		> 100						4.31	5.44	6.04	1.22				
C=CC(=O)N[C@@H](CC(C)C)C(=O)N[C@@H](Cc1c[nH]c2ccccc12)C(=O)NCc1ccccc1	> 30	> 100	Active	Active				> 100	> 100	> 100	> 100				
CC(C)C[C@H](NC(=O)CCl)C(=O)N[C@H](Cc1c[nH]c2ccccc12)C(=O)NCc1ccccc1	14.6	> 100	Active	Active				8.71	> 20	> 20	> 20				
NC(=O)c1ncn([C@@H]2O[C@H](CO)[C@@H](O)[C@H]2O)n1			Active	Active											

Reference: ChEMBL document CHEMBL5543078, “Peptidomimetics as potent dual SARS-CoV-2 cathepsin-L and main protease inhibitors: In silico design, synthesis and pharmacological characterization” (Eur J Med Chem, 2024)
